Test results published in US20170050957A1, “4-AMINO-6-(HETEROCYCLIC)PICOLINATES AND 6-AMINO-2-(HETEROCYCLIC)PYRIMIDINE-4-CARBOXYLATES AND THEIR USE AS HERBICIDES” (Dow AgroSciences LLC, priority 2013, published 2017).
Read-outs that look alike come from different tables or passages of the source.

Tests used:
[1] = test system: Key Broadleaf Weed and Crop Species; experiment: Post-emergent Test II herbicidal activity (Table 15); assay type: in vivo; conditions: post-emergence, 336 h, 14 d; for pest or weed control at 35 g/ha: 35 g ai/ha; for pest or weed control at 70 g/ha: 70 g ai/ha; for pest or weed control at 140 g/ha: 140 g ai/ha
Summary of the method: (§1)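 Visual injury rating (0 = none, 100% = complete kill) made 14 d after treatment, relative to untreated plants. Compounds in an acetone/DMSO/aqueous crop-oil/surfactant spray, at top rate and serial 1/2×-1/16× rates, were applied at 187 L/ha overhead to first-second true leaf plants raised 7-21 d in greenhouse.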

[2] = test system: Key Grass and Sedge Weeds as well as Grass Crops; experiment: Post-emergent Test II herbicidal activity (Table 16); assay type: in vivo; conditions: post-emergence, 336 h, 14 d; for pest or weed control at 35 g/ha: 35 g ai/ha; for pest or weed control at 70 g/ha: 70 g ai/ha; for pest or weed control at 140 g/ha: 140 g ai/ha
Summary of the method: as §1

[3] = Abutilon theophrasti, velvetleaf (Abutilon theophrasti), read-out: Visual Growth Reduction (%) 14 Days After Application, ABUTH
[4] = Amaranthus retroflexus, redroot pigweed (Amaranthus retroflexus), read-out: Visual Growth Reduction (%) 14 Days After Application, AMARE
[5] = Brassica napus, oilseed rape, canola (Brassica napus), read-out: Visual Growth Reduction (%) 14 Days After Application, BRSNN
[6] = Chenopodium album, lambsquarters (Chenopodium album), read-out: Visual Growth Reduction (%) 14 Days After Application, CHEAL
[7] = Euphorbia heterophylla, wild poinsettia (Euphorbia heterophylla), read-out: Visual Growth Reduction (%) 14 Days After Application, EPHHL
[8] = Helianthus annuus, sunflower (Helianthus annuus), read-out: Visual Growth Reduction (%) 14 Days After Application, HELAN
[9] = Cyperus esculentus, yellow nutsedge (Cyperus esculentus), read-out: Visual Growth Reduction (%) 14 Days After Application, CYPES
[10] = Echinochloa crus-galli, barnyardgrass (Echinochloa crus-galli), read-out: Visual Growth Reduction (%) 14 Days After Application, ECHCG
[11] = Oryza sativa, rice (Oryza sativa), read-out: Visual Growth Reduction (%) 14 Days After Application, ORYSA
[12] = Setaria faberi, giant foxtail (Setaria faberi), read-out: Visual Growth Reduction (%) 14 Days After Application, SETFA
[13] = Triticum aestivum, wheat, spring (Triticum aestivum), read-out: Visual Growth Reduction (%) 14 Days After Application, TRZAS
[14] = Zea mays, maize, corn (Zea mays), read-out: Visual Growth Reduction (%) 14 Days After Application, ZEAMX

SMILES	pest or weed control at 35 g/ha [1, 3] [%]	pest or weed control at 70 g/ha [1, 3] [%]	pest or weed control at 140 g/ha [1, 3] [%]	pest or weed control at 140 g/ha [1, 4] [%]	pest or weed control at 35 g/ha [1, 5] [%]	pest or weed control at 70 g/ha [1, 5] [%]	pest or weed control at 140 g/ha [1, 5] [%]	pest or weed control at 35 g/ha [1, 6] [%]	pest or weed control at 70 g/ha [1, 6] [%]	pest or weed control at 140 g/ha [1, 6] [%]	pest or weed control at 35 g/ha [1, 7] [%]	pest or weed control at 70 g/ha [1, 7] [%]	pest or weed control at 140 g/ha [1, 7] [%]	pest or weed control at 35 g/ha [1, 8] [%]	pest or weed control at 70 g/ha [1, 8] [%]	pest or weed control at 140 g/ha [1, 8] [%]	melting point [°C]	pest or weed control at 35 g/ha [2, 9] [%]	pest or weed control at 70 g/ha [2, 9] [%]	pest or weed control at 140 g/ha [2, 9] [%]	further results
COC(=O)c1nc(-c2ccc3[nH]ccc3c2)c(F)c(N)c1Cl [Compound 1.02, Methyl 4-amino-3-chloro-5-fluoro-6-(1H-indol-5-yl)picolinate]	0 to 29	0 to 29	0 to 29	85 to 94	0 to 29	0 to 29	0 to 29	75 to 84	85 to 94	95 to 100	45 to 59	45 to 59	60 to 74	45 to 59	60 to 74	60 to 74	221 to 224	0 to 29	0 to 29	0 to 29	pest or weed control at 70 g/ha [1, 4]: 85 to 94%; pest or weed control at 35 g/ha [2, 10]: 0 to 29%; pest or weed control at 70 g/ha [2, 10]: 0 to 29%; pest or weed control at 140 g/ha [2, 10]: 45 to 59%; pest or weed control at 35 g/ha [2, 11]: 0 to 29%; pest or weed control at 70 g/ha [2, 11]: 0 to 29%; pest or weed control at 140 g/ha [2, 11]: 0 to 29%; pest or weed control at 35 g/ha [2, 12]: 0 to 29%; pest or weed control at 70 g/ha [2, 12]: 0 to 29%; pest or weed control at 140 g/ha [2, 12]: 0 to 29%; pest or weed control at 35 g/ha [2, 13]: 0 to 29%; pest or weed control at 70 g/ha [2, 13]: 0 to 29%; pest or weed control at 140 g/ha [2, 13]: 0 to 29%; pest or weed control at 35 g/ha [2, 14]: 0 to 29%; pest or weed control at 70 g/ha [2, 14]: 0 to 29%; pest or weed control at 140 g/ha [2, 14]: 0 to 29%
COC(=O)c1nc(-c2ccc3c(ccn3C)c2)c(F)c(N)c1Cl [Compound 1.03]	0 to 29	0 to 29	75 to 84	85 to 94	0 to 29	0 to 29	0 to 29	85 to 94	85 to 94	95 to 100	95 to 100	95 to 100	85 to 94	0 to 29	0 to 29	45 to 59	125 to 127	0 to 29	0 to 29	0 to 29	pest or weed control at 35 g/ha [2, 10]: 0 to 29%; pest or weed control at 70 g/ha [2, 10]: 0 to 29%; pest or weed control at 140 g/ha [2, 10]: 60 to 74%; pest or weed control at 35 g/ha [2, 11]: 0 to 29%; pest or weed control at 70 g/ha [2, 11]: 0 to 29%; pest or weed control at 140 g/ha [2, 11]: 0 to 29%; pest or weed control at 35 g/ha [2, 12]: 0 to 29%; pest or weed control at 70 g/ha [2, 12]: 0 to 29%; pest or weed control at 140 g/ha [2, 12]: 0 to 29%; pest or weed control at 35 g/ha [2, 13]: 0 to 29%; pest or weed control at 70 g/ha [2, 13]: 0 to 29%; pest or weed control at 140 g/ha [2, 13]: 0 to 29%; pest or weed control at 35 g/ha [2, 14]: 0 to 29%; pest or weed control at 70 g/ha [2, 14]: 0 to 29%; pest or weed control at 140 g/ha [2, 14]: 0 to 29%
